Results from BindingDB's records for doi:10.1021/jm991125l (Institut Curie, 2000).

Test: Effective concentration required to achieve 50% inhibition of HIV-1 LAI replication in human T4 lymphoblastoid CEM-SS cells.

## CCc1c(C)[nH]c(=O)c(NC(=O)CNC(=O)CN)c1Cc1cc(C)cc(C)c1
  EC50: 0.72 µM

## CCc1c(C)[nH]c(=O)c(NC(=O)CNC(=O)CNC(=O)OC(C)(C)C)c1Cc1cc(C)cc(C)c1
  EC50: 3.2 µM

## CCc1c(Sc2cc(C)cc(C)c2)n(CCCCC(=O)OC)c(=O)[nH]c1=O
  EC50: 0.025 µM

## CCc1c(C)[nH]c(=O)c(N)c1Cc1cc(C)cc(C)c1 [3-amino-4-[(3,5-dimethylphenyl)methyl]-5-ethyl-6-methyl-1,2-dihydropyridin-2-one]
  EC50: 0.017 µM

## Nc1ccn([C@H]2CC[C@@H](CO)O2)c(=O)n1 [Dideoxycytidine]
  EC50: 0.031 µM

## COC(=O)CCc1cn(C2CC(N=[N+]=[N-])C(CO)O2)c(=O)[nH]c1=O (configuration not stated)
  EC50: > 100 µM

## CCc1c(C)[nH]c(=O)c(NC(=O)CCCC(=O)O)c1Cc1cc(C)cc(C)c1
  EC50: 4.5 µM

## CCOC(=O)CCn1c(=O)c(C)cn(C2CC(N=[N+]=[N-])C(CO)O2)c1=O (configuration not stated)
  EC50: 0.8 µM

## CCc1c(Sc2cc(C)cc(C)c2)n(CCCCC(=O)NCCCCNC(=O)CCc2cn(C3CC(N=[N+]=[N-])C(CO)O3)c(=O)[nH]c2=O)c(=O)[nH]c1=O (configuration not stated)
  EC50: 3.3 µM

## CCc1c(Sc2cc(C)cc(C)c2)n(CCCCC(=O)NCCCCCCCCCCCCNc2ccn(C3CCC(CO)O3)c(=O)n2)c(=O)[nH]c1=O (configuration not stated)
  EC50: 0.43 µM

## CCc1c(C)[nH]c(=O)c(NC(=O)CCCC(=O)OC)c1Cc1cc(C)cc(C)c1
  EC50: 24 µM

## CCc1c(C)[nH]c(=O)c(NC(=O)CCCCCCCCC(=O)OC)c1Cc1cc(C)cc(C)c1
  EC50: > 10 µM

## COC(=O)CCCNC(=O)CCc1cn(C2CC(N=[N+]=[N-])C(CO)O2)c(=O)[nH]c1=O (configuration not stated)
  EC50: > 100 µM

## Cc1cn([C@H]2C[C@H](N=[N+]=[N-])[C@@H](CO)O2)c(=O)[nH]c1=O [1-((2R,4S,5S)-4-Azido-5-hydroxymethyl-tetrahydro-furan-2-yl)-5-methyl-1H-pyrimidine-2,4-dione]
  EC50: 0.002 µM

## CCc1c(C)[nH]c(=O)c(NC(=O)CCCCCCCCCN)c1Cc1cc(C)cc(C)c1
  EC50: 58 µM

## [N-]=[N+]=NC1CC(n2cc(CCC(=O)NCCCCCCCCCCN)c(=O)[nH]c2=O)OC1CO (configuration not stated)
  EC50: 20 µM

## CCc1c(Sc2cc(C)cc(C)c2)n(CCCCC(=O)NCCCCCCCCCCNC(=O)CCn2c(=O)c(C)cn(C3CC(N=[N+]=[N-])C(CO)O3)c2=O)c(=O)[nH]c1=O (configuration not stated)
  EC50: 2.8 µM

## CCc1c(C)[nH]c(=O)c(NC(=O)CCCCCCCCCNC(=O)OC(C)(C)C)c1Cc1cc(C)cc(C)c1
  EC50: > 10 µM

## CCc1c(Sc2cc(C)cc(C)c2)n(CCCCC(=O)NCCCCCCCCCCNC(=O)CCc2cn(C3CC(N=[N+]=[N-])C(CO)O3)c(=O)[nH]c2=O)c(=O)[nH]c1=O (configuration not stated)
  EC50: 1.7 µM

## NCCCCCCCCCCCCNc1ccn(C2CCC(CO)O2)c(=O)n1 (configuration not stated)
  EC50: 7.8 µM

## [N-]=[N+]=NC1CC(n2cc(CCC(=O)NCCCCN)c(=O)[nH]c2=O)OC1CO (configuration not stated)
  EC50: > 100 µM

## CCc1c(C)[nH]c(=O)c(NC(=O)CCCCCCCCC(=O)O)c1Cc1cc(C)cc(C)c1
  EC50: 70 µM
